According to ChEMBL document CHEMBL1137148, “Synthesis, activity, metabolic stability, and pharmacokinetics of glucocorticoid receptor modulator-statin hybrids” (Bioorg Med Chem Lett, 2004):
pIC50: −log10 of the molar value.

What was measured:
[1] = biological target: T1, Glucocorticoid receptor (Rattus norvegicus, UniProt P06536); assay: Inhibition of dexamethasone-induced glucocorticoid receptor mediated tyrosine aminotransferase in rat hepatocytes; format: functional, cell-based, Hepatocyte
T1 sequence (P06536 whole entry): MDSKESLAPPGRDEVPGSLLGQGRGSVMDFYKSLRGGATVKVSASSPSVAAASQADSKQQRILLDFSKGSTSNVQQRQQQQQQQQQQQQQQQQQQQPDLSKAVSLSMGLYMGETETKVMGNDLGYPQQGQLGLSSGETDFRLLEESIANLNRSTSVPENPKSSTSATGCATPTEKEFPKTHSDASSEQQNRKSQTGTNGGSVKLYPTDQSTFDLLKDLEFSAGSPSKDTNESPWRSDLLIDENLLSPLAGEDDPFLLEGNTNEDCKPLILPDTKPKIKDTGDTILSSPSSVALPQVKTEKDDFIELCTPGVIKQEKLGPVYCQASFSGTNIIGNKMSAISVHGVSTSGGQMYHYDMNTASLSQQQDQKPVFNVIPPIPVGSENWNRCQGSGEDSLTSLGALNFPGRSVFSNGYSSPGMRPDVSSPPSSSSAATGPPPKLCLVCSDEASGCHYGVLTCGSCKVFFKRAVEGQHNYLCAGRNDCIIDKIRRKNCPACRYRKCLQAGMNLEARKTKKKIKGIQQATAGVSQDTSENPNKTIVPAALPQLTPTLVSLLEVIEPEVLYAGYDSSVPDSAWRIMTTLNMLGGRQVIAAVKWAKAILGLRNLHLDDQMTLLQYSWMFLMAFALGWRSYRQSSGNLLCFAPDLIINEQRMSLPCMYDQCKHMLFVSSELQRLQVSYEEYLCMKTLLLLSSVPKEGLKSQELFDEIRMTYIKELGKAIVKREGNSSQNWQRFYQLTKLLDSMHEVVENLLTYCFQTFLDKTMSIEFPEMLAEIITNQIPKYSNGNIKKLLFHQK

[2] = biological target: T2, Progesterone receptor (Homo sapiens, UniProt P06401); assay: Inhibition of human progesterone receptor
T2 sequence (P06401 whole entry): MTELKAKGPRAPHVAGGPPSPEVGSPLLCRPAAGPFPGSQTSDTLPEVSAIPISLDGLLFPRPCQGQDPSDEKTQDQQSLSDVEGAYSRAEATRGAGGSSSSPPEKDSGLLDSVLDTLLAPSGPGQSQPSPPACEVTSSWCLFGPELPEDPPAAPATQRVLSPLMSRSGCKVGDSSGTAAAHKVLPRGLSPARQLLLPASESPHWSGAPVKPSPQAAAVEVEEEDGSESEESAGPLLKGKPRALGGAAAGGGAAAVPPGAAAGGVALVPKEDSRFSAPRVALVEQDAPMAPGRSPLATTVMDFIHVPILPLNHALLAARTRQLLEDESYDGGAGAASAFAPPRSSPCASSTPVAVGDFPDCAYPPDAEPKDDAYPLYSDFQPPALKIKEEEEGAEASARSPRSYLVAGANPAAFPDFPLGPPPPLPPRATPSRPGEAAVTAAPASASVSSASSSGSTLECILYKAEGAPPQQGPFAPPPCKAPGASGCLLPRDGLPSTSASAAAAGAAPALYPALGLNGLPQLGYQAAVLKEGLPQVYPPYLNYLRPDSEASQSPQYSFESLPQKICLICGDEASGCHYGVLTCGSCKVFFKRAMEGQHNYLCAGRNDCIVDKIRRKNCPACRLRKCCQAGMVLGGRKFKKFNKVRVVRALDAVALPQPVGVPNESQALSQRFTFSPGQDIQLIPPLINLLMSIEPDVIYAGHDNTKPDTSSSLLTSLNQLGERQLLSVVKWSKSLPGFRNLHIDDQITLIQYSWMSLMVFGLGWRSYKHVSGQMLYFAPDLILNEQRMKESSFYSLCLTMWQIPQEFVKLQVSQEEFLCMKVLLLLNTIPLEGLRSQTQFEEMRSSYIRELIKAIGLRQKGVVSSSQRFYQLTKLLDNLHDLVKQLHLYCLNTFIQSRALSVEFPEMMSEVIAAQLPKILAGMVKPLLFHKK

[3] = biological target: T3, Glucocorticoid receptor (Homo sapiens, UniProt P04150); assay: Inhibition of dexamethasone-induced glucocorticoid receptor mediated alkaline phosphatase activity; format: functional
T3 sequence (P04150 whole entry): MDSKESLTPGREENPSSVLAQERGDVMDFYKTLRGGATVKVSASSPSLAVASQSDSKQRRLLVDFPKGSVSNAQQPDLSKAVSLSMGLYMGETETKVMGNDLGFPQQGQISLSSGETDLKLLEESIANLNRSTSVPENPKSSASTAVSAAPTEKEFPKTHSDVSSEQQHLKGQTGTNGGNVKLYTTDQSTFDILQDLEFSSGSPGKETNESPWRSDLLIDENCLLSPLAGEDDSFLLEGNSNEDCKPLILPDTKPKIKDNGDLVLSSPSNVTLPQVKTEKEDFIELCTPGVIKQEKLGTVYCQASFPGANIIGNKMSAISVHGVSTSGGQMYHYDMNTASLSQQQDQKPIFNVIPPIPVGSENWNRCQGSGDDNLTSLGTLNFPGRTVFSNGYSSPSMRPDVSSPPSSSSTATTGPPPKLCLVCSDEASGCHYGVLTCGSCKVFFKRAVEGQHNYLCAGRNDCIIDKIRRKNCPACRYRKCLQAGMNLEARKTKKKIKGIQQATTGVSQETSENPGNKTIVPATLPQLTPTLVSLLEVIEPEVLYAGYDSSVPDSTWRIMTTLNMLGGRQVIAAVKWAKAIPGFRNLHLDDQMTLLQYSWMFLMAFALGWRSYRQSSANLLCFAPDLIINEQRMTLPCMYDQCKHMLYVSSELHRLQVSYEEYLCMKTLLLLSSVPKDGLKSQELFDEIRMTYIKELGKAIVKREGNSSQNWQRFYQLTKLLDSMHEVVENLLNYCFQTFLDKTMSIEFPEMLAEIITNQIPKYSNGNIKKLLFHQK

[4] = biological target: T3, Glucocorticoid receptor

Structure (SMILES)	pIC50 [1]	pIC50 [2]	pIC50 [3]	pIC50 [4]
CC#C[C@]1(O)CC[C@H]2[C@@H]3CCC4=CC(=O)CCC4=C3[C@@H](c3ccc(N(C)C[C@@H](O)CC(=O)O)cc3)C[C@@]21C	6.66	6.70	7.12	7.43
Cc1c(NS(C)(=O)=O)cccc1N(Cc1ccc(Oc2cccc(OC[C@@H](O)C[C@@H](O)CC(=O)O)c2)cc1)Cc1ccc(F)cc1F	< 4.52		6.12	7.82
Cc1c(NS(C)(=O)=O)cccc1N(Cc1ccc(Oc2cccc(OC[C@@H]3C[C@@H](O)CC(=O)O3)c2)cc1)Cc1ccc(F)cc1F	< 4.52		6.17	7.60
Cc1c(NS(C)(=O)=O)cccc1N(Cc1ccccc1)Cc1ccc(Oc2ccc(OC[C@@H](O)C[C@@H](O)CC(=O)O)cc2)cc1	< 4.52		6.52	8.68
CC#C[C@]1(O)CC[C@H]2[C@@H]3CCC4=CC(=O)CCC4=C3[C@@H](c3ccc(OC[C@@H](O)CC(O)CC(=O)O)cc3)C[C@@]21C (single isomer, unassigned)	6.25	7.33	5.54	8.04
CC#C[C@]1(O)CC[C@H]2[C@@H]3CCC4=CC(=O)CCC4=C3[C@@H](c3ccc(N(C)C[C@@H](O)C[C@@H](O)CC(=O)O)cc3)C[C@@]21C	6.89	7.49	7.74	8.17
CC#C[C@]1(O)CC[C@H]2[C@@H]3CCC4=CC(=O)CCC4=C3[C@@H](c3ccc(N(C)C[C@@H]4C[C@@H](O)CC(=O)O4)cc3)C[C@@]21C	6.85	8.42	7.64	8.64
Cc1c(NS(C)(=O)=O)cccc1N(Cc1ccccc1)Cc1ccc(Oc2ccc(OC[C@@H]3C[C@@H](O)CC(=O)O3)cc2)cc1	< 4.52		6.36	8.68
Cc1c(NS(C)(=O)=O)cccc1N(Cc1ccc(Oc2ccccc2)cc1)Cc1ccc(F)cc1F	< 4.52			
